The experiment addresses T1, DNA topoisomerase 1 (Homo sapiens) (UniProt P11387).
T1 sequence (whole entry): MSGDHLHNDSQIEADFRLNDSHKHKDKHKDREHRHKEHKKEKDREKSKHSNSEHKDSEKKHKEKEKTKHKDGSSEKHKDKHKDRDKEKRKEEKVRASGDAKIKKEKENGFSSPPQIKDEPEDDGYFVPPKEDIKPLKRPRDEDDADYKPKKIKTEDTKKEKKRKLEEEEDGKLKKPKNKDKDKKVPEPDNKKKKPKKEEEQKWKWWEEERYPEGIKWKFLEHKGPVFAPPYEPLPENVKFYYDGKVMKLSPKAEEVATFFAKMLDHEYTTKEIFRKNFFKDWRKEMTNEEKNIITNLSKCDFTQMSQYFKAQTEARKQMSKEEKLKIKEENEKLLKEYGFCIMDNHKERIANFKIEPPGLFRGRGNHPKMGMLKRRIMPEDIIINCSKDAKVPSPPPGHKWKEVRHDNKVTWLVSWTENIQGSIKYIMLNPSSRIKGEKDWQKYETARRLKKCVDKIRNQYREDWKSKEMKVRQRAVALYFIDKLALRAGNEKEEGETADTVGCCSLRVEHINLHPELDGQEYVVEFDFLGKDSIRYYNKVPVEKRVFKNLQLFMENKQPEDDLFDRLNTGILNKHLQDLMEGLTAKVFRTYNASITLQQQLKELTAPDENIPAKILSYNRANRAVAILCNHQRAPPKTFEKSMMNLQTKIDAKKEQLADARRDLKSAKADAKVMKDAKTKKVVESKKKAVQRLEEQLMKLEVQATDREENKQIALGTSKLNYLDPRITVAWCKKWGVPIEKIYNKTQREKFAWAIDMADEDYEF
Briefly: Inhibitory activity against DNA-Topoisomerase I.

The source made the active and inactive calls. The calls are words filed in the database; no cut-off is given here.

As for `Nc1ccc2c3c(n(CCCCl)c(=O)c2c1)-c1cc2c(cc1C3=O)OCO2`, the inhibition result is “inactive”.
For `O=C1c2cc3c(cc2-c2c1c1ccccc1c(=O)n2CCCCl)OCO3`, the inhibition entry is “inactive”.
